Measured values as given in PubChem BioAssay AID1919003 (Molecular Pharmacology Branch, DTP, NCI, 2023).

Tested on: 786-0 complex spheroids with HUVEC/MSC, growth % test/control
Assay: Anticancer human tumor 786-0 cell line growth inhibition [AhR];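 note: compound exposure lasted seven days before the read-out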
Conditions: for IC50: curve of first compound; for viability, T/C: stronger effect = lower value
Source text: Multicellular complex tumor spheroid response to aryl hydrocarbon receptor antagonists in combination with a variety of drugs and investigational agents in selected tumor cell lines
The current study was undertaken to assess response to aryl hydrocarbon receptor antagonists in combination with standard-of-care drugs and investigational agents in solid tumor complex spheroid models. Complex spheroids include a stromal component modeled by human endothelial cells (HUVEC) and fibroblasts modeled by human mesenchymal stem cells (MSCs). The concentration ranges selected for each drug and investigational agent were based upon clinically achievable concentrations if the clinical Cmax of the agent was known.
Compounds. The drugs and investigational agents: BAY 2416964 (NSC825713), GNF351 (NSC835774), CH-223191 (NSC835775), CPI-455 (NSC825282), aza-TdCyd (NSC777586), decitabine (NSC127716), belinostat (NSC758774), entinostat (NSC756642), pevonedistat (NSC761192), tazemetostat (NSC777109), talazoparib (NSC765396), olaparib (NSC753686), selinexor (NSC780203), nedisertib (M3814, NSC802822), bortezomib (NSC756655), venetoclax (NSC766270), doxorubicin (NSC123127), elimusertib (BAY189344, NSC800525), ceralasertib (AZD6738, NSC777638), TAK-243 (NSC785004), alisertib (NSC759677), etoposide (NSC141540), topotecan (NSC609699), eribulin (NSC707389), gemcitabine (NSC613327), carboplatin (NSC241240), cisplatin (NSC119875), and SN-38 (NSC673596) were obtained from the National Cancer Institute (NCI) Developmental Therapeutics Program Chemical Repository (32). The FDA-approved anticancer drug set is available from the Developmental Therapeutics Program at https://dtp.cancer.gov/organization/dscb/obtaining/available plates.htm. […] The stock solutions were prepared in dimethyl sulfoxide (DMSO, Sigma-Aldrich, St. Louis, MO, cat. D2650), except for the platinum compounds which were prepared in saline (Quality Biological, Gaithersburg, MD, cat. 114-055-101), at 800-fold the tested concentration and stored at -70 degrees C prior to their use. All drugs and investigational agents were tested over a range starting from a high concentration at or near the clinical Cmax and decreasing in half-log increments. If the clinical Cmax for an agent had not been determined, the highest concentration tested was 10 microM (Table 1).
Cell Culture. All cells were maintained in an incubator at 37 degrees C and 5% CO2 with 95% humidity. The PDC lines were cultured according to standard operating procedures established by the NCI PDMR (https://pdmr.cancer.gov). Briefly, all PDCs were thawed and cultured in Matrigel-coated flasks prepared with a working solution of 1X Ham's F-12 nutrient mix, without supplementation (Invitrogen, Waltham, MA, cat. 11765054), 100 U/mL penicillin-streptomycin (Invitrogen, cat. 15140122), and 2.5% Matrigel (Corning Inc., Corning, NY, cat. 354248) for the first three passages. All PDCs were cultured in complete DMEM/F-12 media containing advanced DMEM/F-12 (Invitrogen, cat. 12634028), 4.9% defined fetal bovine serum, heat inactivated (HyClone Laboratories Inc., Logan, UT, cat. SH30070.03HI), 389 ng/mL hydrocortisone (Sigma-Aldrich, cat. H4001), 9.7 ng/mL human EGF recombinant protein (Invitrogen, cat. PHG0313), 23.4 microg/mL adenine (Sigma-Aldrich, cat. A2786), 97.3 U/mL penicillin-streptomycin (Invitrogen, cat. 15140122), 1.9 mM L-glutamine (Invitrogen, cat. 25030081), and 9.7 microM Y-27632 dihydrochloride (Tocris Bioscience, Bristol, United Kingdom, cat. 1254). The PDCs were cultured in complete DMEM/F12 media without 10 microM Y-27632 dihydrochloride for at least two passages prior to the screen. The established cell lines NCI-H1341 and […] were cultured in DMEM/F-12, HEPES (Invitrogen, cat. 11330032), 5% defined fetal bovine serum (HyClone Laboratories Inc., cat. SH30070.03), ITS premix universal culture supplement [insulin (5 microg/mL), transferrin (5 microg/mL), and selenious acid (5 ng/mL)] […]

For CCN(c1cc(-c2ccc(CN3CCOCC3)cc2)cc(C(=O)NCc2c(C)cc(C)[nH]c2=O)c1C)C1CCOCC1 + CC(CO)NC(=O)c1cc(-c2ccc(Cl)cc2)nn(-c2cnn(C)c2)c1=O, the IC50 (second compound 0.1 µM) was > 3 µM, the IC50 (second compound 0.316 µM) was > 3 µM and the IC50 (second compound 1 µM) was > 3 µM. The IC50 (second compound 3.16 µM) was > 3 µM, the IC50 (second compound 10 µM) was > 3 µM and the viability, T/C (second compound 0.1 µM, first compound 0.00949 µM) was 90.2%. It also gave a viability, T/C (second compound 0.1 µM, first compound 0.03 µM) of 101%, a viability, T/C (second compound 0.1 µM, first compound 0.0949 µM) of 93.5% and a viability, T/C (second compound 0.1 µM, first compound 0.3 µM) of 106%. The viability, T/C (second compound 0.1 µM, first compound 0.949 µM) was 98.7%, the viability, T/C (second compound 0.1 µM, first compound 3 µM) was 102% and the viability, T/C (second compound 0.316 µM, first compound 0.00949 µM) was 108%. For the same compound, the viability, T/C (second compound 0.316 µM, first compound 0.03 µM) was 107%, the viability, T/C (second compound 0.316 µM, first compound 0.0949 µM) was 103% and the viability, T/C (second compound 0.316 µM, first compound 0.3 µM) was 101%. It also gave a viability, T/C (second compound 0.316 µM, first compound 0.949 µM) of 103%, a viability, T/C (second compound 0.316 µM, first compound 3 µM) of 98.4% and a viability, T/C (second compound 1 µM, first compound 0.00949 µM) of 98.8%. The viability, T/C (second compound 1 µM, first compound 0.03 µM) was 102%, the viability, T/C (second compound 1 µM, first compound 0.0949 µM) was 101% and the viability, T/C (second compound 1 µM, first compound 0.3 µM) was 109%. It also gave a viability, T/C (second compound 1 µM, first compound 0.949 µM) of 110%, a viability, T/C (second compound 1 µM, first compound 3 µM) of 96.6% and a viability, T/C (second compound 3.16 µM, first compound 0.00949 µM) of 101%. The viability, T/C (second compound 3.16 µM, first compound 0.03 µM) was 97.5%, the viability, T/C (second compound 3.16 µM, first compound 0.0949 µM) was 106% and the viability, T/C (second compound 3.16 µM, first compound 0.3 µM) was 102%. The viability, T/C (second compound 3.16 µM, first compound 0.949 µM) was 112%, the viability, T/C (second compound 3.16 µM, first compound 3 µM) was 98.5% and the viability, T/C (second compound 10 µM, first compound 0.00949 µM) was 105%. For the same compound, the viability, T/C (second compound 10 µM, first compound 0.03 µM) was 110%, the viability, T/C (second compound 10 µM, first compound 0.0949 µM) was 102% and the viability, T/C (second compound 10 µM, first compound 0.3 µM) was 116%. For the same compound, the viability, T/C (second compound 10 µM, first compound 0.949 µM) was 116% and the viability, T/C (second compound 10 µM, first compound 3 µM) was 106%.
